Laboratory results reported in PMC11203719, “Mts1 (S100A4) and Its Peptide Demonstrate Cytotoxic Activity in Complex with Tag7 (PGLYRP1) Peptide” (International Journal of Molecular Sciences, 2024).
Entries after “also recorded” stand apart in the source; their conditions may differ. No end group written: not given here.

Key:
[1] = target: T1, Mts1 (S100A4) (Homo sapiens, UniProt P26447); assay: Microscale thermophoresis, binding to labeled Mts1
T1 construct: a functional fragment of the Tag7 protein (PGLYRP1) and a full-sized Mts1 protein (S100A4); His tag (from vector pQE-30; purified on HisTrap FF) (N); made in house; host or cells: Escherichia coli M15 (pREP4)
Experimental: To evaluate the protein–protein interaction of Mts1 with Tag7 and with peptides, 17.1, 17.1A, and 17.1B, a quantitative microscale thermophoresis method was used to reliably determine the parameters of the interaction of protein complexes.
To study the dissociation constant, purified Mts1 was fluorescently labeled using Alexa Fluor 633 (Invitrogen, Eugene, OR, USA) in accordance with the manufacturer’s protocol. Mts1 (200 nM) was preincubated for 20 min with Tag7-Mts1, 17.1-Mts1, 17.1A-Mts1, and 17.1B-Mts1 in the dark at room temperature in 16 different concentrations, obtained by sequential dilution. To study the dissociation constant of Tag7 with M7, Tag7 was fluorescently labeled using Alexa Fluor 488 (Invitrogen, Eugene, OR, USA) in accordance with the manufacturer’s protocol. Tag7 (200 nM) was preincubated for 20 min with M7 in the dark at room temperature in 16 different concentrations, obtained by sequential dilution. The samples were loaded into glass capillaries of Monolith NT Capillaries (NanoTemper Technologies GmbH, München, Germany) and analyzed by thermophoresis on a Monolith NT 115 nanotemperature apparatus (10% IR laser power). The signal quality was monitored using a NanoTemper Monolith device to detect possible ligand autofluorescence, deposition, aggregation, or ligand-induced changes in the photobleaching rate. The experiments were carried out in at least three repetitions and processed using affinity analysis software (MO Control v.1.6.1, NanoTemper Technologies GmbH, München, Germany).

[2] = test system: TNFR1-positive tumor cells; conditions: cited from earlier work
Text: (§1) We investigated developing cytotoxic processes during TNFR1 activation and found two new proteins interacting with this receptor: the immune system regulator PGLYRP1 (Tag7) and DNA-hydrolyzing autoantibodies. […] For the manifestation of Tag7 cytotoxic action, the presence of a coactivator, stimulating cytotoxicity, is necessary. During antitumor studies, a cytotoxic complex released by human ... || Structural and functional analyses of Tag7 made it possible to localize the epitope of this protein necessary for interaction with TNFR1 and Hsp70. […] It was also possible to separate the activities of this bifunctional peptide.

[3] = test system: lymphocytes; conditions: ref [22]; cited from earlier work
Text: (§2) During a study on the anticancer effect of the Tag7-Hsp70 complex on metastatic cells, the second partner of the Tag7 protein was identified. Tag7 interacts with Mts1 (metastasin 1, S100A4), a member of the S-100 family involved in metastasis processes. Both proteins form the Tag7-Mts1 chemotactic complex.

[4] = test system: L929 cells; assay: Cytotoxicity, L929 cells; assay type: cell-based; conditions: complexes of Mts1 with 17.1A, 17.1B or full-sized Tag7; L929 cells (Figure 2b), 24 h, n = 5
[5] = test system: TNFR1; conditions: cited from earlier work; for inhibition of cytotoxic effect of TNFR1 ligands: ref [19]
Text: as §1

[6] = test system: TNFR1 on the surface of HEK293T cells; assay: Cross-linking (BS3) to TNFR1 on cell surface, anti-TNFR1 pull-down, Western blot; assay type: binding, human; conditions: 17.1-Mts1 at 1 nM, anti-TNFR1 beads
Experimental: We investigated the ability of peptide 17.1 to form a complex with Mts1 and TNFR1 on the cell surface. The 17.1-Mts1 complex was added to HEK293T cells with TNFR1s on their surface. After incubation, a crosslinking agent (BS^3) was added, forming covalent bonds between molecules located at a distance of less than 1 nm at the time of addition. Next, the cells were lysed, and membrane proteins were precipitated using anti-TNFR1 antibodies conjugated with magnetic beads. The obtained material was separated using SDS electrophoresis and detected using Western blotting with polyclonal antibodies to Mts1 or Tag7.
A column with CNBr-activated Sepharose 4B (GE Healthcare, Chicago, IL, USA) conjugated with 17.1 was prepared as described in accordance with the manufacture’s protocol. The recombinant Mts1 protein was loaded into a column with 17.1-Sepharose 4B. Then, the material was extensively washed with PBS plus 0.5 M NaCl, followed by PBS, eluted with 0.25 M triethylamine, pH 12. The eluted material was resolved using 12% SDS-PAGE and applied to a nitro-cellulose membrane. […] The chemiluminescence was recorded using iBright (Thermo Fisher Scientific, Boston, MA, USA). […] Protein concentrations were quantified using a Bradford assay kit (Thermo Fisher Scientific, Carlsbad, CA, USA). […]

[7] = test system: Tag7-Hsp70 complex; conditions: excess of Mts1; ref [22]; cited from earlier work
Text: as §2

[8] = test system: Hsp70; conditions: ref [19]; cited from earlier work
Text: Structural and functional analyses of Tag7 made it possible to localize the epitope of this protein necessary for interaction with TNFR1 and Hsp70. […] It was also possible to separate the activities of this bifunctional peptide.

[9] = test system: Mts1; assay: Affinity chromatography on 17.1-Sepharose with Western blot for Mts1; assay type: binding, human; conditions: recombinant Mts1 100 ng, 17.1 immobilized on CNBr-activated Sepharose; eluted 0.25 M triethylamine; Mts1 eluted as tetramer
Experimental: In the previous section, we noted the competition between Hsp70 and Mts1 for the binding center of Tag7. We have shown that Hsp70 interacts with peptide 17.1, which is located at the C-terminal region of the polypeptide chain Tag7. […] The recombinant Mts1 protein (100 ng total protein, 0.1 mg/mL) was applied to CNBr-activated Sepharose with immobilized peptide 17.1. The bound proteins were eluted and analyzed using SDS-PAGE and a subsequent Western blot test with specific anti-Mts1 antibodies. It was shown that Mts1 is present in the eluate in the form of a tetramer (Figure 1).
A column with CNBr-activated Sepharose 4B (GE Healthcare, Chicago, IL, USA) conjugated with 17.1 was prepared as described in accordance with the manufacture’s protocol. The recombinant Mts1 protein was loaded into a column with 17.1-Sepharose 4B. Then, the material was extensively washed with PBS plus 0.5 M NaCl, followed by PBS, eluted with 0.25 M triethylamine, pH 12. The eluted material was resolved using 12% SDS-PAGE and applied to a nitro-cellulose membrane. […] The chemiluminescence was recorded using iBright (Thermo Fisher Scientific, Boston, MA, USA). […] Protein concentrations were quantified using a Bradford assay kit (Thermo Fisher Scientific, Carlsbad, CA, USA). […]

T1 sequence (P26447 whole entry, the tested form may be a part): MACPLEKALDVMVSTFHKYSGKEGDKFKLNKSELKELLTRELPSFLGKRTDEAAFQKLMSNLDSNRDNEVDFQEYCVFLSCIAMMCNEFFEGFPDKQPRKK

Substance: Tag7-Mts1: complex of full-sized Tag7 with Mts1
- Kd ([1]; first-named partner titrated (16 concentrations) to Alexa Fluor 633-labeled Mts1 (200 nM), 20 min, room temperature, at least three repetitions, mean ± SD): 9.21 ± 1.5 µM
- cytotoxic activity ([2]; previous study, ref [22]): no cytotoxic activity
- chemotactic activity [3]: induces the movement of lymphocytes along the concentration gradient of this complex

Substance: Tag7: recombinant full-size Tag7 protein (PGLYRP1)
- affinity for Mts1 (in words) [1]: significantly higher apparent Kd
- cytotoxic activity in complex with Mts1 [4]: does not have a cytotoxic effect on cells; also recorded: does not form a cytotoxic complex with the Mts1 protein
- inhibition of cytotoxic activity of TNF and other TNFR1 ligands ([5]; previous work, reference not clearly printed): acts as an inhibitor of the cytotoxic activity of TNF and other TNFR1 ligands

Substance: Mts1: recombinant human Mts1 (S100A4) protein
- interaction with TNFR1 on cell surface [6]: binds to the TNFR1 receptor on the cell surface
- displacement of Hsp70 from Tag7-Hsp70 complex [7]: displaces Hsp70 from the Tag7-Hsp70 complex

Substance: HRDVQRT [17.1B]
- affinity for Mts1 (in words) [1]: highly specific
- affinity for Hsp70 [8]: high affinity for Hsp70

Substance: SNYVLKGHRDVQ [17.1]
- affinity for Mts1 (in words) [1]: highly specific
- binding to Mts1 [9]: 17.1 binds to Mts
- death of tumor cells in combination with Hsp70 ([2]; in combination with Hsp70, ref [19]): induces the death of tumor cells
- inhibition of cytotoxic effect of TNFR1 ligands [5]: inhibits the cytotoxic effect of TNFR1 ligands

Substance: RSNYVLKG [17.1A]
- affinity for Mts1 (in words) [1]: significantly higher apparent Kd; also recorded: low affinity
- cytotoxic activity in complex with Mts1 [4]: does not contribute to the appearance of cytotoxicity
- inhibition of cytotoxic effect of TNFR1 ligands [5]: responsible for binding to TNFR1 and inhibiting cytotoxicity
